The text below walks through data of patent publication US7629323B2, “Manipulation of neuronal ion channels” (Northwestern University, priority 2003, dated 2009).

The test system of experiment [1] is Inward rectifier K+ channels. To be noted: cited from earlier work.
The target in the next experiment is T1, Kv3.4 channel (Rattus norvegicus, UniProt Q63734).
T1 construct: host or cells: COS cells
T1 sequence (Q63734 1-625): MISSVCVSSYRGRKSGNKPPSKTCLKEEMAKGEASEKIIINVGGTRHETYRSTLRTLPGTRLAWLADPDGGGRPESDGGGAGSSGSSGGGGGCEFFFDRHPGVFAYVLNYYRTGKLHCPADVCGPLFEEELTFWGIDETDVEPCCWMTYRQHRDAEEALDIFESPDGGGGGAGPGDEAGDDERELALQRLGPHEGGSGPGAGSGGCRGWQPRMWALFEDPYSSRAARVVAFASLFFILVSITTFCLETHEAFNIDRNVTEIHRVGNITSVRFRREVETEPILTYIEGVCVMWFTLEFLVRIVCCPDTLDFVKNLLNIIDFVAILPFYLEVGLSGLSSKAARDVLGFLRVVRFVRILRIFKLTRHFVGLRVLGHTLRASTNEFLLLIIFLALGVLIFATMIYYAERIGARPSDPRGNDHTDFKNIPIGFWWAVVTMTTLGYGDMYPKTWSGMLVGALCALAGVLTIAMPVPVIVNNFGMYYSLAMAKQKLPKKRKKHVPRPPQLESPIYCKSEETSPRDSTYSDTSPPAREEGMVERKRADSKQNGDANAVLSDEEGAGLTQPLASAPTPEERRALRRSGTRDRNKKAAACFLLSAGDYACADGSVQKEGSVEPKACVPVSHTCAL
To be noted: COS-transfected cells, reversible; read-out: IC50, inhibition of Kv3.4 current; cited from earlier work.

Experiment [2] relates to Na+ currents in FS neurons. In words: Na+ currents in FS neurons. Particulars: n=3. Format: cell-based, rat. An excerpt: (§1) Tissue preparation. […] Hippocampal interneurons and GP were identified as CaMKII negative, GAD67 and parvalbumin positive neurons by single cell RT-PCR detection of corresponding mRNAs following physiology experiments (see below).
Electrophysiology. Whole-cell recordings used standard techniques^27,28. The internal solution consisted of (in mM): 30-90 K2SO4, 0-60 N-methyl-D-glucamine, 2 MgCl2, 40 HEPES, 5 EGTA, 12 phosphocreatine, 2 Na2ATP, 0.2 Na3GTP, and 0.1 leupeptin, pH 7.2 with H2SO4 (osmolarity 260-270 mOsm/l). The external solution consisted of (in mM): 140 Na-isethionate, 2 KCl, 4 MgCl2, 10 HEPES, 12 glucose and 0.001 TTX, pH 7.35 with NaOH (osmolarity 295-305 mOsm/l). The internal solution for current clamp recordings consisted of (in mM) 110 potassium methylsulphate, 2 MgCl2, 40 HEPES, 5 EGTA, 12 phosphocreatine, 2 Na2ATP, 0.2 Na3GTP, and 0.1 leupeptin, pH 7.2 with H2SO4 (osmolarity 260-270 mOsm/l). In the case of current clamp recordings, TTX was omitted from external solution. […] Recordings were obtained with Axon Instruments 200 patch-clamp amplifier and controlled and monitored with a PC running pClamp software (version 7.0) (Axon Instruments Inc., Union City, Calif.). […] After seal rupture, series resistance (2-10 MΩ) was compensated (75-90%) and periodically monitored. […]

A further experiment concerns the target T2, homomeric Kv3.4 channels (Rattus norvegicus, UniProt Q63734).
T2 sequence (Q63734 1-625): T1 sequence (Q63734 1-625)
Particulars: low micromolar concentrations; cited from earlier work.

Experiment [3] has as its system Kv3 channels in FS neurons. Kind of experiment: Whole-cell voltage clamp of Kv3 delayed rectifier currents in acutely dissociated FS neurons. The class given is cell-based, rat.
From the text: as §1
Electrophysiology. Whole-cell recordings used standard techniques^27,28. The internal solution consisted of (in mM): 30-90 K2SO4, 0-60 N-methyl-D-glucamine, 2 MgCl2, 40 HEPES, 5 EGTA, 12 phosphocreatine, 2 Na2ATP, 0.2 Na3GTP, and 0.1 leupeptin, pH 7.2 with H2SO4 (osmolarity 260-270 mOsm/l). The external solution consisted of (in mM): 140 Na-isethionate, 2 KCl, 4 MgCl2, 10 HEPES, 12 glucose and 0.001 TTX, pH 7.35 with NaOH (osmolarity 295-305 mOsm/l). The internal solution for current clamp recordings consisted of (in mM) 110 potassium methylsulphate, 2 MgCl2, 40 HEPES, 5 EGTA, 12 phosphocreatine, 2 Na2ATP, 0.2 Na3GTP, and 0.1 leupeptin, pH 7.2 with H2SO4 (osmolarity 260-270 mOsm/l). In the case of current clamp recordings, TTX was omitted from external solution. For the recordings in the presence of Ca^+2 ions EGTA was omitted from internal solution and 4 mM of MgCl2 was substituted by 2 mM of CaCl2 and 2 mM of MgCl2. All drugs were obtained from Sigma (St. Louis, […]) except BDS-I that was obtained from Alomone Labs (Jerusalem, Israel). Solutions were applied by gravity fed sewer pipe system. Recordings were obtained with Axon Instruments 200 patch-clamp amplifier and controlled and monitored with a PC running pClamp software (version 7.0) (Axon Instruments Inc., Union City, Calif.). […] After seal rupture, series resistance (2-10 MΩ) was compensated (75-90%) and periodically monitored. […] Activation data were fit with a Boltzmann equation of the form: 1/(1+exp ((Vh−V)/Vc), V stands for membrane potential. In the case of Kv3.4a current, an estimate of peak current was obtained by single exponential fit of decay phase extrapolated to the start of test pulse. In all other instances the voltage dependence of the currents was obtained from the amplitude of tail currents measured following 200 msec long voltage steps. […]

In experiment [4] the test system is K+ channels in the Kv1, Kv2, Kv3, and Kv4 subfamilies. Particulars: cited from earlier work.

Consider “BDS-I (AAPCFCSGKPGRGDLWILRGTCPGGYGYTSNCYKWPNICCYPH)”, for which, in experiment [1], the “sensitivity of inward rectifier K+ channels” value is recorded as “insensitive”. For the same substance, the half-inhibitory concentration (IC50) with Kv3.4 channel is 47 nM. In experiment [2], the “inactivation kinetics of Na+ currents in FS neurons” value was “didn't significantly alter”. Also, in the experiment with homomeric Kv3.4 channels, the “block of homomeric Kv3.4 channels” value is given as “blocks”. In experiment [3], the “block of TEA-sensitive, Kv3 channel currents in FS neurons” value was “efficiently blocked”; the “effect on delayed rectifier currents evoked by depolarization in FS neurons” value was “slowed the rising phase of delayed rectifier currents evoked by depolarization and reduced their amplitude”. Moreover, the “time for substantial unblocking of channels containing Kv3.4 subunits” value in experiment [3] (at +20 mV) is reported as “more than 5 msec”. Moreover, the “block of other K+ channels in the Kv1, Kv2, Kv3, and Kv4 subfamilies” value in experiment [4] is “failed to block”.
